Like-named read-outs stand apart in the source and are kept apart here. Ends that are not written are not given here. Peptide text beside a SMILES is read from it.
Test system: B. cinerea
Type: cell-based, Botrytis cinerea
Conditions: for fold reduction in antifungal activity relative to NCR13_CS: reduced peptides
Description: B. cinerea strain T4 was cultured in V8 medium for 3 weeks at 25°C. Fungal spores were collected by flooding the fungal growth plates with water and scraped using a sterile spreader. The spore suspension was filtered through two layers of Miracloth, followed by centrifugation at 12,000 g for 2 minutes (min) and subsequently washed twice with sterile water. Lastly, fungal spores were resuspended in Synthetic Fungal Media (SFM). The spore suspension was adjusted to the desired spore density of about 10^5 spores/mL using a hemocytometer. Fusarium virguliforme (F. virguliforme) was grown and maintained regularly in potato dextrose agar (PDA) (Difco Laboratories) medium. Two weeks old F. virguliforme plates were used to collect spores as described above for B. cinerea followed by centrifugation and washing steps. Spores were counted using a hemocytometer and adjusted to the final concentration of 10^5 spores/mL in 2X SFM media. Sclerotinia sclerotiorum obtained from the field of pennycress in Illinois was grown on PDA medium at room temperature.
The antifungal activity of NCR13 against fungal pathogens was determined using the resazurin cell viability assay, as described previously. Briefly, 45 μL of each peptide dilution (0, 0.09, 0.1875, 0.375, 0.75, 1.5, 3, and 6 μM) was added to each well of the microtiter plate containing 45 μL (~10^5 spores/mL) of spore suspension. Three biological replicates were used for each treatment and the experiments were repeated three times. Resazurin at 0.1% (w/v) was added to each well after incubation for 48 h. Images were taken at ~24 h. The Minimum Inhibitory Concentration (MIC) for each peptide denotes the lowest concentration at which the peptide halts the growth of fungus evident through a lack of color change from blue to […]. The in vitro antifungal activity of NCR13_PFVs against S. sclerotiorum was determined using a 24-well plate assay as previously described. Mycelial plugs (1 mm in diameter) cut from the growing edge of the two day-old actively growing colony were transferred from PDA media to a series of wells containing 250 μL of SFM.

[1] = B. cinerea, resazurin assay in SFM, ~10^5 spores/mL, resazurin added after 48 h, three biological replicates

| Compound | Minimal Inhibitory Concentration (MIC) [1] | Minimal Inhibitory Concentration (MIC) (48 h) | other results |
| --- | --- | --- | --- |
| CC(C)[C@H](NC(=O)[C@H](CCCCN)NC(=O)[C@@H]1CCCN1C(=O)[C@H](CCCCN)NC(=O)[C@H](CCCNC(=N)N)NC(=O)[C@H](CS)NC(=O)[C@H](C)NC(=O)[C@H](Cc1ccccc1)NC(=O)[C@H](CCCCN)NC(=O)[C@@H](N)CCCCN)C(=O)N1CCC[C@H]1C(=O)N[C@@H](CCCCN)C(=O)N[C@@H](CS)C(=O)O [NCR13 active motif] (H-KKFACRKPKVPKC-OH; N-terminus and C-terminus assumed) | 3 µM |  |  |
| CC[C@H](C)[C@H](NC(=O)[C@H](CS)NC(=O)[C@H](CCCCN)NC(=O)[C@@H]1CCCN1C(=O)[C@@H](NC(=O)[C@H](CCCCN)NC(=O)[C@@H]1CCCN1C(=O)[C@H](CCCCN)NC(=O)[C@H](CCCNC(=N)N)NC(=O)[C@H](CS)NC(=O)[C@H](C)NC(=O)[C@H](Cc1ccccc1)NC(=O)[C@H](CCCCN)NC(=O)[C@H](CCCCN)NC(=O)[C@H](CS)NC(=O)[C@H](C)NC(=O)[C@H](C)NC(=O)[C@H](C)NC(=O)[C@H](C)NC(=O)[C@H](C)NC(=O)[C@H](CS)NC(=O)[C@@H]1CCCN1C(=O)[C@H](CCCCN)NC(=O)[C@@H](N)[C@@H](C)O)C(C)C)C(=O)N[C@@H](CC(N)=O)C(=O)NCC(=O)N[C@@H](Cc1ccccc1)C(=O)N[C@@H](CS)C(=O)N[C@@H](CCCCN)C(=O)N[C@@H](CS)C(=O)N[C@H](C(=O)N[C@@H](CCCNC(=N)N)C(=O)O)C(C)C [NCR13_AlaV1] (H-TKPCAAAAACKKFACRKPKVPKCINGFCKCVR-OH; N-terminus and C-terminus assumed) |  | 6 µM | fold reduction in antifungal activity relative to NCR13_CS (B. cinerea): 2 fold |
| CC[C@H](C)[C@H](NC(=O)[C@H](CS)NC(=O)[C@H](CCCCN)NC(=O)[C@@H]1CCCN1C(=O)[C@@H](NC(=O)[C@H](CCCCN)NC(=O)[C@@H]1CCCN1C(=O)[C@H](CCCCN)NC(=O)[C@H](CCCNC(=N)N)NC(=O)[C@H](CS)NC(=O)[C@H](C)NC(=O)[C@H](C)NC(=O)[C@H](C)NC(=O)[C@H](C)NC(=O)[C@H](CS)NC(=O)[C@H](CC(=O)O)NC(=O)[C@H](CCCCN)NC(=O)[C@H](CC(=O)O)NC(=O)[C@H](CO)NC(=O)[C@H](CCC(N)=O)NC(=O)[C@H](CS)NC(=O)[C@@H]1CCCN1C(=O)[C@H](CCCCN)NC(=O)[C@@H](N)[C@@H](C)O)C(C)C)C(=O)N[C@@H](CC(N)=O)C(=O)NCC(=O)N[C@@H](Cc1ccccc1)C(=O)N[C@@H](CS)C(=O)N[C@@H](CCCCN)C(=O)N[C@@H](CS)C(=O)N[C@H](C(=O)N[C@@H](CCCNC(=N)N)C(=O)O)C(C)C [NCR13_AlaV2] (H-TKPCQSDKDCAAAACRKPKVPKCINGFCKCVR-OH; N-terminus and C-terminus assumed) |  | > 12 µM |  |
| CC[C@H](C)[C@H](NC(=O)[C@H](CS)NC(=O)[C@H](C)NC(=O)[C@H](C)NC(=O)[C@H](C)NC(=O)[C@H](CCCCN)NC(=O)[C@@H]1CCCN1C(=O)[C@H](CCCCN)NC(=O)[C@H](CCCNC(=N)N)NC(=O)[C@H](CS)NC(=O)[C@H](C)NC(=O)[C@H](Cc1ccccc1)NC(=O)[C@H](CCCCN)NC(=O)[C@H](CCCCN)NC(=O)[C@H](CS)NC(=O)[C@H](CC(=O)O)NC(=O)[C@H](CCCCN)NC(=O)[C@H](CC(=O)O)NC(=O)[C@H](CO)NC(=O)[C@H](CCC(N)=O)NC(=O)[C@H](CS)NC(=O)[C@@H]1CCCN1C(=O)[C@H](CCCCN)NC(=O)[C@@H](N)[C@@H](C)O)C(=O)N[C@@H](CC(N)=O)C(=O)NCC(=O)N[C@@H](Cc1ccccc1)C(=O)N[C@@H](CS)C(=O)N[C@@H](CCCCN)C(=O)N[C@@H](CS)C(=O)N[C@H](C(=O)N[C@@H](CCCNC(=N)N)C(=O)O)C(C)C [NCR13_AlaV4] (H-TKPCQSDKDCKKFACRKPKAAACINGFCKCVR-OH; N-terminus and C-terminus assumed) |  | > 12 µM |  |
| CC(C)[C@H](NC(=O)[C@H](CS)NC(=O)[C@H](CCCCN)NC(=O)[C@H](CS)NC(=O)[C@H](C)NC(=O)[C@H](C)NC(=O)[C@H](C)NC(=O)[C@H](C)NC(=O)[C@H](CS)NC(=O)[C@H](CCCCN)NC(=O)[C@@H]1CCCN1C(=O)[C@@H](NC(=O)[C@H](CCCCN)NC(=O)[C@@H]1CCCN1C(=O)[C@H](CCCCN)NC(=O)[C@H](CCCNC(=N)N)NC(=O)[C@H](CS)NC(=O)[C@H](C)NC(=O)[C@H](Cc1ccccc1)NC(=O)[C@H](CCCCN)NC(=O)[C@H](CCCCN)NC(=O)[C@H](CS)NC(=O)[C@H](CC(=O)O)NC(=O)[C@H](CCCCN)NC(=O)[C@H](CC(=O)O)NC(=O)[C@H](CO)NC(=O)[C@H](CCC(N)=O)NC(=O)[C@H](CS)NC(=O)[C@@H]1CCCN1C(=O)[C@H](CCCCN)NC(=O)[C@@H](N)[C@@H](C)O)C(C)C)C(=O)N[C@@H](CCCNC(=N)N)C(=O)O [NCR13_AlaV5] (H-TKPCQSDKDCKKFACRKPKVPKCAAAACKCVR-OH; N-terminus and C-terminus assumed) |  | 12 µM | fold reduction in antifungal activity relative to NCR13_CS (B. cinerea): 4 fold |
| CC[C@H](C)[C@H](NC(=O)[C@H](CS)NC(=O)[C@H](CCCCN)NC(=O)[C@@H]1CCCN1C(=O)[C@@H](NC(=O)[C@H](CCCCN)NC(=O)[C@@H]1CCCN1C(=O)[C@H](CCCCN)NC(=O)[C@H](CCCNC(=N)N)NC(=O)[C@H](CS)NC(=O)[C@H](C)NC(=O)[C@H](Cc1ccccc1)NC(=O)[C@H](CCCCN)NC(=O)[C@H](CCCCN)NC(=O)[C@H](CS)NC(=O)[C@H](CC(=O)O)NC(=O)[C@H](CCCCN)NC(=O)[C@H](CC(=O)O)NC(=O)[C@H](CO)NC(=O)[C@H](CCC(N)=O)NC(=O)[C@H](CS)NC(=O)[C@@H]1CCCN1C(=O)[C@H](CCCCN)NC(=O)[C@@H](N)[C@@H](C)O)C(C)C)C(=O)N[C@@H](CC(N)=O)C(=O)NCC(=O)N[C@@H](Cc1ccccc1)C(=O)N[C@@H](CS)C(=O)N[C@@H](CCCCN)C(=O)N[C@@H](CS)C(=O)N[C@H](C(=O)N[C@@H](CCCNC(=N)N)C(=O)O)C(C)C [NCR13_CS] (H-TKPCQSDKDCKKFACRKPKVPKCINGFCKCVR-OH; N-terminus and C-terminus assumed) | 3 µM |  | fold decrease in antifungal activity compared to NCR13_PFV1 (B. cinerea): ~33 fold; fold decrease in antifungal activity compared to NCR13_PFV2 (B. cinerea): 2 fold |
| TKPSQSDKDSKKFASRKPKVPKSINGFSKSVR [NSR13] | Inactive | > 24 µM |  |
